The values below come from US5478808A, “2-amino-6,7-dihydroxy-4-thiaheptanoic acid derivatives, production and use thereof” (Takeda Chemical Industries, Ltd., priority 1992, dated 1995).

In data set [1] the test system is bone marrow cells of BALB/c mice. The data set is described as follows: Enhancing proliferation of bone marrow cells of mice (MTT reduction method). The format is cell-based, mouse. As to conditions: concentration giving 1.3 or more times the proliferation of the group without test compound; 3 days incubation. Here is the method:
To an RPMI 1640 culture medium [Bio-Wittaker Inc. (hereinafter abbreviated as BW), USA] containing 2×10^6 /ml of bone marrow cells of BALB/c mice, 2 mM of L-glutamine, 20 ug/ml of gentamicin (Flow Laboratories, Inc., Scotland), 10% fetal calf serum (BW, USA) was added a test compound in an adequate concentration, which was incubated at 37° C. for 3 days in 5% carbon dioxide in air followed by determination of proliferation of the bone marrow cells by the MTT reduction method [Tada et al., Journal of Immunological Methods, Vol. 93, p.157, 1986].

For data set [2], the system named is peripheral blood leukocytes of CDF1/Crj mice. The data set is described as follows: Enhancing the number of leukocytes in cyclophosphamide-treated mice. The format is in vivo, mouse. As to conditions: cyclophosphamide 150 mg/kg p.o., then compound 0.063 mg/kg/day s.c. for 5 days; mice without cyclophosphamide = 100%.
Method: Six week old female CDF1/Crj mice (5 animals/group) were subjected to the experiment. […] From the next day, each animal was administered subcutaneously with the compound suspended in 5% glucose at the following dosages for five days once a day. On the next day after completion of the administration, about 100 μl of peripheral blood was collected from orbital vein using an EDTA-treated glass capillary. Then, the number of lekocytes was counted using a automatic cell analyzer (Sysmex K-2000, Toa Medical Electronics, Japan)
The test system of the next data set is mouse. The data set is described as follows: Toxicity test, intraperitoneal. The format is in vivo. As to conditions: 100 mg/kg.

In the case of “(2R,6R)-2-amino-6,7-bis(PamO)-4-THT-Gly-Gly-Gly-Glu-Thr-Thr-OH [Compound 2]”, the “Minimal Effective Concentration (MEC)” value in data set [1] was under 0.156 ng/mL. Also, in data set [2], the Number of leukocytes was determined as 102%.

Regarding “(2R,6R)-2-amino-6,7-bis(PamO)-4-THT-NH(CH2)7 CO-Glu-OH hydrochloride [Compound 36]”, in data set [1], the “Minimal Effective Concentration (MEC)” value was under 0.156 ng/mL.

Consider “(2S,6R)-2-amino-6,7-bis(PamO)-4-THT-Gly-Gly-Gly-Glu-Thr-Thr-OH [Compound 3]”, for which, in the data set with mouse, the Mortality entry is listed as “No mouse administered intraperitoneally with Compound 3 at a dose of 100 mg/kg was found dead”.
